Measurements as given in patent US11419806B2, “Prebiotic oral care methods using a saccharide” (Colgate-Palmolive Company, priority 2013, dated 2022).

tested on: S sanguinis; test: Phenotype microarray metabolic activity; type: cell-based; settings: 48 hrs
Description: (§1) The extent of metabolic activity of the tested bacteria in the presence of the above-mentioned saccharides after 24 hours and 48 hours was investigated through a high throughput phenotype microarray system (PM) for microbial cells (Biolog Inc.). Each PM can contain up to 95 different biochemical compounds (e.g. saccharides) that may act as substrates for bacteria as well as one negative control, not containing the substrates. Microarray plates were used in which the different wells of each plate were pre-loaded (by the manufacturer, Biolog Inc.) with different saccharides to be tested. Each bacterial species was tested using a separate microarray plate. Thus, a single bacterial species was tested with a variety of saccharides on each particular plate. The microarrays are based on redox technology, using cell respiration as a universal reporter. Active cell respiration results in the reduction of a tetrazolium dye and in the formation of a strong color—for example, when using the tetrazolium dye “Biolog Redox Dye Mix D”, the color changes from transparent/colorless to purple when the dye is reduced. The observation of this color change indicates which of the substrates improve the metabolic activity and health of the cells.
(§2) Each bacterial species was collected from blood agar plates (incubated for 48 hours anaerobically at 37° C.) and transferred to an IF-0 Base inoculation fluid (Biolog Inc.), which is a nutritionally poor medium. The resulting cell suspension was adjusted to a transmittance of 42% (relative to the transmittance of the base inoculation fluid with no bacterial species present) at 492 nm using a BioRad SmartSpec 3000 Photometer (the adjustment being effected by adding either further inoculation fluid or further bacteria until the transmittance of 42% was achieved). A 1:5 dilution of this suspension was prepared by mixing 3 mL of the 42% transmittance cell suspension with 15 mL of an inoculation fluid (which inoculation fluid was formed by mixing 11.6 mL sterile water, 62.5 mL IF-0 base inoculation fluid and 0.9 mL of the tetrazolium dye “Biolog Redox Dye mix D”), resulting in a final cell density which was equal to 85% transmittance using a BioRad SmartSpec 3000 Photometer. For each of the saccharides tested, the microarray plate (obtained from the supplier (Biolog Inc.) with saccharides already present in the relevant wells in powder form) was directly inoculated with 100 μL/well of this 85% transmittance cell suspension.
(§3) All plates were incubated in an anaerobic atmosphere at 37° C. Color changes were measured spectrophotometrically at 492 nm (Thermo Scientific Multiskan Ascent) at 24 hrs and 48 hrs using the same plate at both time points. […] After 24 hrs and 48 hrs under continuous shaking in a Multiscan microplate reader, the optical density (OD) of the synthetic medium at 24 hours and 48 hours was measured (using the microplate reader) at a wavelength of 492 nm for each combination of bacterium/saccharide, and for each of their respective controls (i.e. which contained the particular bacterium but no saccharide).
(§4) The experiment was carried out three times for each combination of bacterium with saccharide, with each repeat being carried out on a different day (thus providing three biological replicas). The controls were also carried out three times, as above. The values shown are the average (mean) of the three single values obtained (as detailed above) for each combination of bacterium with saccharide, at 24 hrs and at 48 hrs.

Row | Compound | metabolic activity: OD 492 nm divided by OD of control (control = 1)
1 | OC[C@H]1O[C@@](O)(CO)[C@@H](O[C@H]2O[C@H](CO)[C@@H](O)[C@H](O)[C@H]2O)[C@@H]1O [D-Turanose, α-D-glucopyranosyl-(1→3)-α-D-fructofuranose] | 1.5207

tested on: Streptococcus gordonii; test: Phenotype microarray metabolic activity; type: cell-based; settings: S gordonii; 24 hrs
Description: as §1, §2, §3, §4

Row | Compound | metabolic activity: OD 492 nm divided by OD of control (control = 1)
2 | OC[C@H]1O[C@@](O)(CO)[C@@H](O[C@H]2O[C@H](CO)[C@@H](O)[C@H](O)[C@H]2O)[C@@H]1O [D-Turanose, α-D-glucopyranosyl-(1→3)-α-D-fructofuranose] | 1.7899

same assay, conditions: S gordonii; 48 hrs

Row | Compound | metabolic activity: OD 492 nm divided by OD of control (control = 1)
3 | OC[C@H]1O[C@@](O)(CO)[C@@H](O[C@H]2O[C@H](CO)[C@@H](O)[C@H](O)[C@H]2O)[C@@H]1O [D-Turanose, α-D-glucopyranosyl-(1→3)-α-D-fructofuranose] | 2.1615

tested on: Streptococcus mitis; test: Phenotype microarray metabolic activity; type: cell-based; settings: S mitis; 24 hrs
Description: as §1, §2, §3, §4

Row | Compound | metabolic activity: OD 492 nm divided by OD of control (control = 1)
4 | OC[C@H]1O[C@@](O)(CO)[C@@H](O[C@H]2O[C@H](CO)[C@@H](O)[C@H](O)[C@H]2O)[C@@H]1O [D-Turanose, α-D-glucopyranosyl-(1→3)-α-D-fructofuranose] | 1.2969

same assay, conditions: S mitis; 48 hrs

Row | Compound | metabolic activity: OD 492 nm divided by OD of control (control = 1)
5 | OC[C@H]1O[C@@](O)(CO)[C@@H](O[C@H]2O[C@H](CO)[C@@H](O)[C@H](O)[C@H]2O)[C@@H]1O [D-Turanose, α-D-glucopyranosyl-(1→3)-α-D-fructofuranose] | 1.3856

tested on: Streptococcus mutans; test: Phenotype microarray metabolic activity; type: cell-based; settings: S mutans; 24 hrs
Description: as §1, §2, §3, §4

Row | Compound | metabolic activity: OD 492 nm divided by OD of control (control = 1)
6 | OC[C@H]1O[C@@](O)(CO)[C@@H](O[C@H]2O[C@H](CO)[C@@H](O)[C@H](O)[C@H]2O)[C@@H]1O [D-Turanose, α-D-glucopyranosyl-(1→3)-α-D-fructofuranose] | 1.4769

same assay, conditions: S mutans; 48 hrs

Row | Compound | metabolic activity: OD 492 nm divided by OD of control (control = 1)
7 | OC[C@H]1O[C@@](O)(CO)[C@@H](O[C@H]2O[C@H](CO)[C@@H](O)[C@H](O)[C@H]2O)[C@@H]1O [D-Turanose, α-D-glucopyranosyl-(1→3)-α-D-fructofuranose] | 2.1955

tested on: Streptococcus salivarius; test: Phenotype microarray metabolic activity; type: cell-based; settings: S salivarius; 24 hrs
Description: as §1, §2, §3, §4

Row | Compound | metabolic activity: OD 492 nm divided by OD of control (control = 1)
8 | OC[C@H]1O[C@@](O)(CO)[C@@H](O[C@H]2O[C@H](CO)[C@@H](O)[C@H](O)[C@H]2O)[C@@H]1O [D-Turanose, α-D-glucopyranosyl-(1→3)-α-D-fructofuranose] | 1.1489

same assay, conditions: S salivarius; 48 hrs

Row | Compound | metabolic activity: OD 492 nm divided by OD of control (control = 1)
9 | OC[C@H]1O[C@@](O)(CO)[C@@H](O[C@H]2O[C@H](CO)[C@@H](O)[C@H](O)[C@H]2O)[C@@H]1O [D-Turanose, α-D-glucopyranosyl-(1→3)-α-D-fructofuranose] | 1.2834

tested on: Streptococcus sobrinus; test: Phenotype microarray metabolic activity; type: cell-based; settings: S sobrinus; 24 hrs
Description: as §1, §2, §3, §4

Row | Compound | metabolic activity: OD 492 nm divided by OD of control (control = 1)
10 | OC[C@H]1O[C@@](O)(CO)[C@@H](O[C@H]2O[C@H](CO)[C@@H](O)[C@H](O)[C@H]2O)[C@@H]1O [D-Turanose, α-D-glucopyranosyl-(1→3)-α-D-fructofuranose] | 1.6552

same assay, conditions: S sobrinus; 48 hrs

Row | Compound | metabolic activity: OD 492 nm divided by OD of control (control = 1)
11 | OC[C@H]1O[C@@](O)(CO)[C@@H](O[C@H]2O[C@H](CO)[C@@H](O)[C@H](O)[C@H]2O)[C@@H]1O [D-Turanose, α-D-glucopyranosyl-(1→3)-α-D-fructofuranose] | 1.8299

tested on: Tannerella forsythia; test: Phenotype microarray metabolic activity; type: cell-based; settings: T forsythia; 24 hrs
Description: as §1, §2, §3, §4

Row | Compound | metabolic activity: OD 492 nm divided by OD of control (control = 1)
12 | OC[C@H]1O[C@@](O)(CO)[C@@H](O[C@H]2O[C@H](CO)[C@@H](O)[C@H](O)[C@H]2O)[C@@H]1O [D-Turanose, α-D-glucopyranosyl-(1→3)-α-D-fructofuranose] | 1.0435

same assay, conditions: T forsythia; 48 hrs

Row | Compound | metabolic activity: OD 492 nm divided by OD of control (control = 1)
13 | OC[C@H]1O[C@@](O)(CO)[C@@H](O[C@H]2O[C@H](CO)[C@@H](O)[C@H](O)[C@H]2O)[C@@H]1O [D-Turanose, α-D-glucopyranosyl-(1→3)-α-D-fructofuranose] | 1.1254

tested on: Veillonella parvula; test: Phenotype microarray metabolic activity; type: cell-based; settings: V parvula; 24 hrs
Description: as §1, §2, §3, §4

Row | Compound | metabolic activity: OD 492 nm divided by OD of control (control = 1)
14 | OC[C@H]1O[C@@](O)(CO)[C@@H](O[C@H]2O[C@H](CO)[C@@H](O)[C@H](O)[C@H]2O)[C@@H]1O [D-Turanose, α-D-glucopyranosyl-(1→3)-α-D-fructofuranose] | 0.8743

same assay, conditions: V parvula; 48 hrs

Row | Compound | metabolic activity: OD 492 nm divided by OD of control (control = 1)
15 | OC[C@H]1O[C@@](O)(CO)[C@@H](O[C@H]2O[C@H](CO)[C@@H](O)[C@H](O)[C@H]2O)[C@@H]1O [D-Turanose, α-D-glucopyranosyl-(1→3)-α-D-fructofuranose] | 0.7770
